Where a name gives a salt, the structure may show the parent alone.
Biological target: T1, PIM1 serine/threonine kinase (Homo sapiens, UniProt P11309)
T1 construct: purchased Carna Bioscience, Inc
Assay: PIM1 serine/threonine kinase inhibitory effect
Format: biochemical
Details: PIM1 serine/threonine kinase activity; ATP 40 μM; 30° C., 30 minutes
Procedure: Each test substance was prepared to 10 mM with dimethylsulfoxide (DMSO), and further diluted with DMSO so as to have concentrations of 1000, 300, 100, 30, 10, 3, 1, 0.3, 0.1, 0.03, 0.01, and 0.001 μM. Moreover, each dilution was further diluted 33.3-fold with an assay buffer to prepare a test substance solution. The composition of the assay buffer was 50 mM HEPES (pH 7.0), 0.02% NaN3, 0.01% Bovine Serum Albumin, 0.1 mM Orthovanadate, 1 mM Dithiothreitol, and 5 mM MgCl2.
5 μL of each test substance solution was added to 384-well plates (n=2), and then 2.5 μL of a substrate solution (substrate 3-biotin (Cisbio Bioassays SAS), final concentration in the reaction solution: 0.5 μM) and 2.5 μL of an ATP solution (in the cases of PIM1, 2, 3, the final concentrations in the reaction solutions were 40, 2, and 10 μM, respectively) were added, 5 μL of each of PIM1, 2, 3 serine/threonine kinase solutions (Carna Bioscience, Inc., the final concentrations in the reaction solutions were 0.15, 1.6, and 0.25 μg/ml, respectively) was finally added, and the mixture was reacted at 30° C. for 30 minutes. The test substance concentrations in the reaction solutions are 10000, 3000, 1000, 300, 100, 30, 10, 3, 1, 0.3, 0.1, and 0.01 nM.
Thereafter, 15 μL of each detection solution (62.5 nM Streptavidin-XL665 (Cisbio Bioassays SAS), […] STK antibody-Cryptate (Cisbio Bioassays SAS), 50 mM HEPES (pH 7.0), 0.8 M KF, 0.1% Bovine Serum Albumin, 20 mM ethylenediaminetetraacetic acid) was added to each well. After stirring, the mixture was reacted at 30° C. for 1 hour. Absorbance (OD620, OD665) at 620 and 665 nm was measured with a microplate reader (SpectraMax M5e, Molecular Devices, LLC).
Non-linear regression analysis was performed by an SAS system (SAS Institute Inc.) using the ratio (OD665/OD620) of the measured absorbance to calculate a test substance concentration (IC50) that inhibits PIM1 serine/threonine kinase activity by 50%.

T1 sequence (P11309 whole entry): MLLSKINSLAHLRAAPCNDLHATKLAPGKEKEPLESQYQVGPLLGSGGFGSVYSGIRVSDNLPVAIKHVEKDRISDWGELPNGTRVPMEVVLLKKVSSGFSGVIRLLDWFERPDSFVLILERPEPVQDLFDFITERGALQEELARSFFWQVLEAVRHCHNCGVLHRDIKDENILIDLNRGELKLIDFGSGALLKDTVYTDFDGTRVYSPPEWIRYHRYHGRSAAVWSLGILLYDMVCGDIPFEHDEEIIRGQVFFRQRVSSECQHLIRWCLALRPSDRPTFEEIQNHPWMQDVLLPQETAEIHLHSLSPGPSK

SMILES | IC50 [nM]
O=c1[nH]nc(-c2ccc(Cl)c(N3CCNCC3)c2)o1 [Example 8, 5-[4-chloro-3-(piperazin-1-yl)phenyl]-1,3,4-oxadiazol-2(3H)-one hydrochloride] | 810
CC(C)(C)OC(=O)NCc1cccc(-c2cc(-c3n[nH]c(=O)o3)ccc2Cl)c1 [Example 17, tert-butyl {[2′-chloro-5′-(5-oxo-4,5-dihydro-1,3,4-oxadiazol-2-yl)[1,1′-biphenyl]-3-yl]methyl}carbamate] | 1300
O=c1[nH]nc(-c2ccc(C(F)(F)F)c(NC[C@H]3CC[C@H](C(=O)O)CC3)c2)o1 [Example 119, (1r,4r)-4-{[5-(5-oxo-4,5-dihydro-1,3,4-oxadiazol-2-yl)-2-(trifluoromethyl)anilino]methyl}cyclohexane-1-carboxylic acid] | 1800
CN(Cc1cc(-c2n[nH]c(=O)o2)ccc1Cl)C1CCNCC1 [Example 205, 5-(4-chloro-3-{[methyl(piperidin-4-yl)amino]methyl}phenyl)-1,3,4-oxadiazol-2(3H)-one dihydrochloride] | 290
CC(=O)N1CCC(N(C)Cc2cc(-c3n[nH]c(=O)o3)ccc2Cl)CC1 [Example 215, 5-(3-{[(1-acetylpiperidin-4-yl)(methyl)amino]methyl}-4-chlorophenyl)-1,3,4-oxadiazol-2(3H)-one hydrochloride] | 8800
CC(C)(C)OC(=O)[C@H]1CC[C@H](CNc2cc(-c3n[nH]c(=O)o3)ccc2C(F)(F)F)CC1 [Example 118, tert-butyl (1r,4r)-4-{[5-(5-oxo-4,5-dihydro-1,3,4-oxadiazol-2-yl)-2-(trifluoromethyl)anilino]methyl}cyclohexane-1-carboxylate] | 7300
CC(C)(C)OC(=O)N1CCN(c2cc(-c3n[nH]c(=O)o3)ccc2Cl)CC1 [Example 7, tert-butyl 4-[2-chloro-5-(5-oxo-4,5-dihydro-1,3,4-oxadiazol-2-yl)phenyl]piperazine-1-carboxylate] | 4100
COc1ccc(-c2n[nH]c(=O)o2)cc1N[C@@H](C)C1CCNCC1 [Example 82, 5-(4-methoxy-3-{[(1S)-1-(piperidin-4-yl)ethyl]amino}phenyl)-1,3,4-oxadiazol-2(3H)-one dihydrochloride] | 71
C[C@H](Nc1cc(-c2n[nH]c(=O)o2)ccc1F)C1CCNCC1 [Example 80, 5-(4-fluoro-3-{[(1S)-1-(piperidin-4-yl)ethyl]amino}phenyl)-1,3,4-oxadiazol-2(3H)-one hydrochloride] | 56
NCc1cccc(-c2cc(-c3n[nH]c(=O)o3)ccc2C(F)(F)F)c1 [Example 21, 5-[3′-(aminomethyl)-6-(trifluoromethyl)[1,1′-biphenyl]-3-yl]-1,3,4-oxadiazol-2(3H)-one hydrochloride] | 160
CC(C)(C)OC(=O)NCc1ccc(-c2cc(-c3n[nH]c(=O)o3)ccc2C(F)(F)F)cc1 [Example 19, tert-butyl {[5′-(5-oxo-4,5-dihydro-1,3,4-oxadiazol-2-yl)-2′-(trifluoromethyl)[1,1′-biphenyl]-4-yl]methyl}carbamate] | 1500
N[C@H]1CC[C@H](CNc2cccc(-c3n[nH]c(=O)o3)c2)CC1 [Example 62, 5-[3-({[(1r,4r)-4-aminocyclohexyl]methyl}amino)phenyl]-1,3,4-oxadiazol-2(3H)-one hydrochloride] | 140
O=c1[nH]nc(-c2ccc(C(F)(F)F)c(-c3ccc(OCC4CCNCC4)cc3)c2)o1 [Example 23, 5-{4′-[(piperidin-4-yl)methoxy]-6-(trifluoromethyl)[1,1′-biphenyl]-3-yl}-1,3,4-oxadiazol-2(3H)-one hydrochloride] | 110
C[C@H](Nc1cc(-c2n[nH]c(=O)o2)ccn1)C1CCNCC1 [Example 112, 5-(2-{[(1S)-1-(piperidin-4-yl)ethyl]amino}pyridin-4-yl)-1,3,4-oxadiazol-2(3H)-one dihydrochloride] | 600
C[C@H](Nc1cc(-c2n[nH]c(=O)o2)ccc1S(C)(=O)=O)C1CCNCC1 [Example 128, 5-[4-(methanesulfonyl)-3-{[(1S)-1-(piperidin-4-yl)ethyl]amino}phenyl]-1,3,4-oxadiazol-2(3H)-one hydrochloride] | 82
O=c1[nH]nc(-c2ccc(C(F)(F)F)c(NC[C@H]3CC[C@H](CO)CC3)c2)o1 [Example 120, 5-[3-({[(1r,4r)-4-(hydroxymethyl)cyclohexyl]methyl}amino)-4-(trifluoromethyl)phenyl]-1,3,4-oxadiazol-2(3H)-one] | 590
NC(=O)[C@H]1CC[C@H](CNc2cc(-c3n[nH]c(=O)o3)ccc2C(F)(F)F)CC1 [Example 121, (1r,4r)-4-{[5-(5-oxo-4,5-dihydro-1,3,4-oxadiazol-2-yl)-2-(trifluoromethyl)anilino]methyl}cyclohexane-1-carboxamide] | 120

Compounds with a lower IC50, results first:

IC50 [nM] | SMILES
45 | NC1CCN(c2cc(-c3n[nH]c(=O)o3)ccc2C(F)(F)F)CC1 [Example 9, 5-[3-(4-aminopiperidin-1-yl)-4-(trifluoromethyl)phenyl]-1,3,4-oxadiazol-2(3H)-one hydrochloride]
40 | NCc1ccc(Nc2cc(-c3n[nH]c(=O)o3)ccc2C(F)(F)F)cc1 [Example 41, 5-{3-[4-(aminomethyl)anilino]-4-(trifluoromethyl)phenyl}-1,3,4-oxadiazol-2(3H)-one hydrochloride]
36 | C[C@H](Nc1cc(-c2n[nH]c(=O)o2)cc(C2CC2)c1Cl)C1CCNCC1 [Example 102, 5-(4-chloro-3-cyclopropyl-5-{[(1S)-1-(piperidin-4-yl)ethyl]amino}phenyl)-1,3,4-oxadiazol-2(3H)-one]
36 | Cc1c(-c2n[nH]c(=O)o2)cc(Cl)c(Cl)c1N[C@@H](C)C1CCNCC1 [Example 93, 5-(4,5-dichloro-2-methyl-3-{[(1S)-1-(piperidin-4-yl)ethyl]amino}phenyl)-1,3,4-oxadiazol-2(3H)-one hydrochloride]
27 | NCCCNc1cc(-c2n[nH]c(=O)o2)ccc1C(F)(F)F [Example 2, 5-{3-[(3-aminopropyl)amino]-4-(trifluoromethyl)phenyl}-1,3,4-oxadiazol-2(3H)-one]
23 | O=c1[nH]nc(-c2ccc(C(F)(F)F)c(N[C@@H](C3CCNCC3)C(F)(F)F)c2)o1 [Example 147, 5-[4-(trifluoromethyl)-3-{[(1S)-2,2,2-trifluoro-1-(piperidin-4-yl)ethyl]amino}phenyl]-1,3,4-oxadiazol-2(3H)-one hydrochloride]
16 | CC(C[C@H]1CCNC1)Nc1cc(-c2n[nH]c(=O)o2)ccc1C(F)(F)F (stereo partly drawn) [Example 136, 5-[3-({1-[(3R)-pyrrolidin-3-yl]propan-2-yl}amino)-4-(trifluoromethyl)phenyl]-1,3,4-oxadiazol-2(3H)-one hydrochloride]
14 | CC(C[C@@H]1CCNC1)Nc1cc(-c2n[nH]c(=O)o2)ccc1C(F)(F)F (stereo partly drawn) [Example 134, 5-[3-({1-[(3S)-pyrrolidin-3-yl]propan-2-yl}amino)-4-(trifluoromethyl)phenyl]-1,3,4-oxadiazol-2(3H)-one hydrochloride]
